Data taken from patent publication US12225904B2, “Phenylpyrazole compound and method for controlling plant disease” (SUMITOMO CHEMICAL COMPANY, LIMITED, priority 2019, dated 2025).

Tested on: soybean powdery mildew (Microsphaera diffusa)
Assay: Test Example 13: control test against soybean powdery mildew, foliar spray after inoculation
Format: in vivo
Conditions: 200 ppm foliar spray 2 days after inoculation; soybean cv Kurosengoku

For `CCS(=O)(=O)n1ccc(-c2ccc(Cl)c([N+](=O)[O-])c2)n1` [compound 36], the “lesion area compared to the lesion area in an untreated soybean” value was no more than 30%.
